The experiment addresses uricase from Micrococcus luteus NRRL B-8166. Briefly: Spectrophotometric uricase assay (disappearance of uric acid at 290 nm). Format: biochemical. Conditions: assay in 50 mM KPi buffer pH 8.6, 30° C; read-out: inhibition constant for oxonate. How it is done:
Uricase was assayed spectrophotometrically by following the disappearance of uric acid at 290 nm using a modification of the procedure described by Mahler et. al, J. Biol. Chem., p. 625, 216 (1955). Assay tubes contained 2.7 ml 50 mM KPi buffer pH 8.6, 0.1 mM sodium EDTA, 0.05 ml 6 mM urate, plus enzyme and water to give a final volume of 3.0 ml. Changes or additions to the assay mixtures were made when necessary. Tubes were incubated for 5 minutes at 30° C; the reaction was started by adding enzyme. Molar extinction coefficient for uric acid at 290 nm is 12,300. Activity was expressed in units of uricase activity, where a unit is that amount of enzyme which catalyzes the oxidation of one μmole of uric acid per minute at 30° C and pH 8.6.

Regarding `O=C(O)c1nc(=O)[nH]c(=O)[nH]1` [oxonate], the Ki was found to be 4.5 µM.

These data come from patent US4062731A, “Production of uricase from micrococcus luteus” (Eastman Kodak Company, priority 1976, dated 1977).
